Assays:
thrombin = target: T1, thrombin (Homo sapiens, UniProt P00734); assay: Human Thrombin Generation Assay (TGA); format: biochemical; settings: concentration that reduces endogenous thrombin potential AUC by 50%; human plasma; read-out: ETP EC50
T1 construct: from tissue; host or cells: human plasma (thrombin generated in situ by tissue factor, phospholipids and CaCl2)
Protocol: Results for the human thrombin generation assay (TGA; not to be confused with “thermogravimetric analysis” which is used elsewhere and carries the same acronym. One of skill in the art will appreciate which meaning is intended based on context of the surrounding technical information.) were generated as follows. In a 96-well plate, 4 μL of 100, 33.3, 11.1, 3.7, 1.23, 0.41, 0.137, and 0.046 μM solutions of the test compounds in DMSO were added to sequential wells filled with 68 μL of a “TGA Working Solution.” See description of this solution as well as other relevant solutions below. The plate was incubated at room temperature for 10 minutes, whereupon 8 μL of warm “Substrate Solution” was added to each well, resulting in a 500 μM concentration of the substrate, Z-GGR-AMC (Z-Gly-Gly-Arg-7-amino-4-methylcoumarin·HCl), in each well. Fluorescence intensity data (Ex/Em 380/460 nm) collection began immediately using a Cytation™ or Synergy™ H1 96-well plate reader set to incubate the plate at 37° C. over the data collection time of 90 minutes following double-orbital shaking for a period of 4 seconds. Test compounds were measured parallel to blanks and controls, as well as to wells of the substrate in DMSO at various concentrations (2.50, 0.833, 0.278, 0.093 mM) in the buffers to generate a standard fluorescence curve. Data values were computed automatically, including the ETP EC50 value of the AUC, which is the concentration of the compound that reduces endogenous thrombin potential AUC by 50%.
The various solutions were prepared as follows. A HEPES/NaCl Assay buffer was made by combining 7.5 mL of 5M NaCl, 1.19 g 4-(2-hydroxyethyl)piperazine-1-ethanesulfonic acid (HEPES) and 230 mL of water. An “Innovin Master Solution” was made by combining 20 μL of Siemens Dade Innovin recombinant tissue factor and thromboplastin with 50 μL of 0.5 mM phospholipid-TGT acquired from DiaPharma® in 450 μL of the above HEPES/NaCl Assay buffer. This solution was then vortexed for a few seconds. Next the “Substrate Master Solution” was made by adding 3.2 mL DMSO to 100 mg of Z-GGR-AMC (Z-Gly-Gly-Arg-7-amino-4-methylcoumarin·HCl) and vortexing in a polystyrene tube. This solution was stored at −20° C. A “TGA Working Solution” was prepared by adding 6.2 mL of human plasma, 50 μL of the Innovin Master Solution, and 80 μL of phospholipids to 2.6 mL of HEPES/NaCl Assay buffer. A “Substrate Working Solution” was made immediately before addition to the assay plate by adding 200 μL of the above “Substrate Master Solution” to a pre-warmed (37° C.) mixture of 1.46 mL of HEPES/NaCl Assay buffer and 340 μL of 1M CaCl2).
For additional description of this assay, please see Robert, S. et al. ‘Is thrombin generation the new rapid, reliable and relevant pharmacological tool for the development of anticoagulant drugs?’2009, Pharmacol Res 59:160-6 as well as Hemker, H. C. et al. ‘Calibrated automated thrombin generation measurement in clotting plasma.’ 2003, Pathophysiol Haemost Thromb 33:4-15.

malignant breast tumors = settings: treated mice, cited from earlier work
Mouse plasma stability = format: in vitro ADME, mouse (CD-1); settings: CD-1 mouse plasma, 37° C., time points to 160 min; read-out: Mouse Plasma Stability t1/2
Protocol: Alongside a positive control of propantheline bromide, 8 μL of a 1 mM solution of each test compound in DMSO was placed in two wells of a Nunc™ 96-well plate called the “dilution plate.” To one well, 392 μL of HyClone™ water was added and mixed by a pipette. To the other well, 392 μL of mouse or rat plasma stabilized with sodium citrate purchased from Innovative Research was added and mixed by a pipette. The dilution plate was kept covered to reduce solvent evaporation and heated in an incubator at 37° C. At each of the time points enumerated below, the plate was removed from the incubator and 50 μL of the test compound/water or test compound/plasma solutions were transferred to a unique, corresponding well in a “quench plate” (96-well Costar® plate) that contains 150 μL of a quench solution that contains an internal standard (20 uM diclofenac in acetonitrile). The dilution plate was then returned to the incubator. This process was performed at 0, 5, 10, 20, 40, 80, and 160 minutes from the original mixing of the test compounds with the water or plasma in the dilution plate. After the quenching of the 160-minute time point, the quench plate was then centrifuged at 4° C. at 1000×g for 10 minutes. 100 μL of the supernatant of each well were then transferred to corresponding unique wells in a “read plate” (96-well Costar® plate) that were filled with 100 μL of HyClone™ water. The plate was then sealed and analyzed via UHPLC using a 10-μL sample injection through a Phenomenex® Kinetex column pre-equilibrated with the loading buffer (95:5 water:acetonitrile). The parameters were as follows. Mobile Phase A: water, 0.025% formic acid. Mobile Phase B: acetonitrile, 0.025% formic acid. Flow Rate: 0.5 mL/min. […] Half-life (t1/2) times were computed by using a chi-square analysis to fit the peak areas to an exponential decay model for compound concentration as a function of time.

[1] = Mouse liver microsome stability; format: in vitro ADME, mouse (CD-1); settings: pH 7.4; CD-1 mouse liver microsomes 0.5 mg/mL, NADPH, 37° C.; lower measurable bound 5
Protocol: In a 96-well Nunc™ plate, 1.5 μL of a 200 μM solution of the test compound in DMSO were placed in a well. This plate, the “Reaction Plate,” was then warmed to 37° C. in an oven. In a second 96-well Nunc™ plate, the “Quench Plate,” six wells were filled with 180 μL of an internal standard quench solution composed of 100 nM diclofenac in acetonitrile. These six wells correspond to the six time points for data collection: 0, 0.5, 5, 15, 30, and 60 minutes. “Assay Buffer” was prepared by combining 6.96 g potassium phosphate, dibasic, 1.36 g potassium phosphate, monobasic, and 0.30 g of magnesium chloride hexahydrate, then diluting to a final concentration of 500 mL in water and adjusting to pH 7.4, as needed. Assay Buffer was warmed to 37° C., and 12 mL were added to a 10-mg vial of NADPH. Then 300 μL of a 20 mg/mL liver microsome suspension were added to yield a 0.5 mg/mL liver microsome suspension. 300 μL of this liver microsome suspension was then added to the test compound solution in the Reaction Plate and mixed thoroughly with a pipette tip. At each time point, 30 μL of this mixture was transferred to the corresponding well of the Quench Plate. In between time points, the Reaction Plate was kept sealed and warmed in an incubator at 37° C. When the last time point had been completed, the quench plate was centrifuged at 4° C. at 1000×g for 10 minutes. Afterwards, 50 μL of the supernatant of each well was transferred to unique, corresponding wells of a 96-well Costar® plate, the “Analysis Plate,” filled with 150 μL of 50:50 acetonitrile:HyClone™ water. The Analysis Plate was then sealed with a pre-slit plate seal before analysis via an appropriate LCMS method with a 10 μL injection. The abstracted AUC data were then automatically plotted to calculate intrinsic clearance in μL/min/mg. This experiment was run alongside a positive and negative control. Due to the parameters of this procedure, one of skill in the art will appreciate that this assay has a lower measurable bound of 5 μL/min/mg; therefore, certain compounds have their clearances labeled as ≤5 μL/min/mg.

Row | Structure (SMILES) | EC50 (thrombin) [µM] | other results
1 | CC(C)[C@H](NC(=O)OC(C)(C)C)C(=O)OCOC(=O)CCn1cccc(-c2cc(NCc3ccc(Cl)s3)n(C(=O)C(C)(C)C)n2)c1=O [Compound 21, ({3-[3-(5-{[(5-chlorothiophen-2-yl)methyl]amino}-1-(2,2-dimethylpropanoyl)-1H-pyrazol-3-yl)-2-oxo-1,2-dihydropyridin-1-yl]propanoyl}oxy)methyl (2S)-2-{[(tert-butoxy)carbonyl]amino}-3-methylbutanoate] | 4.8 | –
2 | CCCCCCOC(=O)N=C(N)c1ccc(NCc2nc3cc(C(=O)N(CCC(=O)OCC)c4ccccn4)ccc3n2C)cc1 [dabigatran etexilate] | – | reduction in tumor volume (malignant breast tumors; at 4 weeks): 50%; reduction of tumor cells in the blood and liver micrometastases (malignant breast tumors): 50-60%
3 | C=CCOC(=O)CCn1cccc(-c2cc(NCc3ccc(Cl)s3)n(C(=O)C(C)(C)C)n2)c1=O [Compound 16, prop-2-en-1-yl 3-[3-(5-{[(5-chlorothiophen-2-yl)methyl]amino}-1-(2,2-dimethylpropanoyl)-1H-pyrazol-3-yl)-2-oxo-1,2-dihydropyridin-1-yl]propanoate] | 1.9 | –
4 | CC(=O)OC(C)OC(=O)CCn1cccc(-c2cc(NCc3ccc(Cl)s3)n(C(=O)C(C)(C)C)n2)c1=O (stereo not shown) [Compound 18, 1-(acetyloxy)ethyl 3-[3-(5-{[(5-chlorothiophen-2-yl)methyl]amino}-1-(2,2-dimethylpropanoyl)-1H-pyrazol-3-yl)-2-oxo-1,2-dihydropyridin-1-yl]propanoate] | 1.3 | –
5 | Cc1nc(C)c(COC(=O)CCn2cccc(-c3cc(NCc4ccc(Cl)s4)n(C(=O)C(C)(C)C)n3)c2=O)nc1C [Compound 20, (3,5,6-trimethylpyrazin-2-yl)methyl 3-[3-(5-{[(5-chlorothiophen-2-yl)methyl]amino}-1-(2,2-dimethylpropanoyl)-1H-pyrazol-3-yl)-2-oxo-1,2-dihydropyridin-1-yl]propanoate] | 2.4 | –
6 | CC(C)(CO)C(=O)n1nc(-c2cccn(CCC(=O)O)c2=O)cc1NCc1ccc(Cl)s1 [Compound 10, 3-[3-(5-{[(5-chlorothiophen-2-yl)methyl]amino}-1-(3-hydroxy-2,2-dimethylpropanoyl)-1H-pyrazol-3-yl)-2-oxo-1,2-dihydropyridin-1-yl]propanoic acid] | 1.7 to 10 | half-life at 20 µM (Mouse plasma stability): 1.17 h; microsomal CLint at 1 µM [1]: 4 µL/min/mg
7 | CC(=O)OCCOC(=O)CCn1cccc(-c2cc(NCc3ccc(Cl)s3)n(C(=O)C(C)(C)C)n2)c1=O [Compound 17, 2-(acetyloxy)ethyl 3-[3-(5-{[(5-chlorothiophen-2-yl)methyl]amino}-1-(2,2-dimethylpropanoyl)-1H-pyrazol-3-yl)-2-oxo-1,2-dihydropyridin-1-yl]propanoate] | 1.2 | –

More lines, main results first:

Row | EC50 (thrombin) [µM] | Structure (SMILES) | other results
8 | 0.85 to 0.97 | COCCn1cccc(-c2cc(NCc3ccc(Cl)s3)n(C(=O)C(C)(C)C)n2)c1=O [Compound 7, 3-(5-{[(5-chlorothiophen-2-yl)methyl]amino}-1-(2,2-dimethylpropanoyl)-1H-pyrazol-3-yl)-1-(2-methoxyethyl)-1,2-dihydropyridin-2-one] | half-life at 20 µM (Mouse plasma stability): ≥ 5 h; microsomal CLint at 1 µM [1]: 290 µL/min/mg
9 | 2.9 | CCOC(=O)CCn1cccc(-c2cc(NCc3ccc(Cl)s3)n(C(=O)C(C)(C)C)n2)c1=O [Compound 15, ethyl 3-[3-(5-{[(5-chlorothiophen-2-yl)methyl]amino}-1-(2,2-dimethylpropanoyl)-1H-pyrazol-3-yl)-2-oxo-1,2-dihydropyridin-1-yl]propanoate] | –
10 | 1.9 | [2H]C([2H])(C(=O)O)C([2H])([2H])n1cccc(-c2cc(NCc3ccc(Cl)s3)n(C(=O)C(C)(C)C)n2)c1=O [Compound 22, 3-[3-(5-{[(5-chlorothiophen-2-yl)methyl]amino}-1-(2,2-dimethylpropanoyl)-1H-pyrazol-3-yl)-2-oxo-1,2-dihydropyridin-1-yl](2H4)propanoic acid] | –
11 | 5.4 | CC(C)(C)C(=O)n1nc(-c2cccn(CC(F)(F)C(=O)O)c2=O)cc1NCc1ccc(Cl)s1 [Compound 6, 3-[3-(5-{[(5-chlorothiophen-2-yl)methyl]amino}-1-(2,2-dimethylpropanoyl)-1H-pyrazol-3-yl)-2-oxo-1,2-dihydropyridin-1-yl]-2,2-difluoropropanoic acid] | half-life at 20 µM (Mouse plasma stability): 0.117 h; microsomal CLint at 1 µM [1]: 9 µL/min/mg
12 | 2.4 | [2H]C([2H])(Nc1cc(-c2cccn(CCC(=O)O)c2=O)nn1C(=O)C(C)(C)C)c1ccc(Cl)s1 [Compound 24, 3-[3-(5-{[(5-chlorothiophen-2-yl)(2H2)methyl]amino}-1-(2,2-dimethylpropanoyl)-1H-pyrazol-3-yl)-2-oxo-1,2-dihydropyridin-1-yl]propanoic acid] | –
